Like-named read-outs stand apart in the source and are kept apart here.
Tests used:
CDK6/CycD1 = CDK6/CycD1 (Homo sapiens, UniProt Q00534); assay: Enzyme activity test; assay type: biochemical;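 further: values come from the source column headed CDK6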
Description: (§1) • 1. The test compounds and pabocinib were configured into a […] solution of DMSO; • 2. 20 nL of stock solution was transferred to a 384-well plate using Echo550. DMSO was used as a blank control.
(§2) • 1. according to the following table to prepare 1.3X enzyme solution containing enzyme, substrate and cofactor; • 2. 15 μL of 1.3X enzyme solution was added to each well and the mixture was incubated for 30 min at room temperature; • 3. 5 μL of ATP solution was added to initiate the reaction. The final volume of each well was 20 μL; • 4. After incubation for 150 min at room temperature, 75 μL of termination buffer solution was added to terminate the experiment; • 5. The samples were analyzed using EZ reader.
(§3) The % inhibition was calculated using the following equation
(§4) The one treated with DMSO is the positive control (PC)
(§5) The one without enzyme is the negative control (NC)
(§6) % Inhibition=100-100*((CRPC−CRsample)/(CRPC−CRNC))

CDK4/CycD3 = CDK4/CycD3 (Homo sapiens, UniProt P11802); assay: Enzyme activity test; assay type: biochemical;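 further: values come from the source column headed CDK4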
CDK4/CycD3, sequence (P11802 whole entry, species assumed): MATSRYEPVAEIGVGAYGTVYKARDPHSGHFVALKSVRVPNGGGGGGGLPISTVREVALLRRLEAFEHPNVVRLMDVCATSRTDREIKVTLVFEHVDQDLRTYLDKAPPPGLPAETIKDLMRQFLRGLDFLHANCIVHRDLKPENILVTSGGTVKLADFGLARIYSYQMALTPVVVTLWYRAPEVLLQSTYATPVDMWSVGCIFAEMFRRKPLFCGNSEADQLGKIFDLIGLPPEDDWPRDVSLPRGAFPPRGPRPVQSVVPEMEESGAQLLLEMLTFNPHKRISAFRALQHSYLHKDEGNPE
CDK4/CycD3, sequence (P30281 whole entry partner, species assumed): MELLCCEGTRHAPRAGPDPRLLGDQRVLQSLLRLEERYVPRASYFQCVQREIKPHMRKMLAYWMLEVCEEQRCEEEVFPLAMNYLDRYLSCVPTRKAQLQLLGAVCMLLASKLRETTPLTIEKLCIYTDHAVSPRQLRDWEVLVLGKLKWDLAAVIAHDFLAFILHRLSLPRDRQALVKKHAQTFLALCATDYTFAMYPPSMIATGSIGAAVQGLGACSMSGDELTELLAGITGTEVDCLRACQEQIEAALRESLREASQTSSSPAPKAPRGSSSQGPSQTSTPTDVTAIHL
Description: as §1, §2, §3, §4, §5, §6

CDK2/CycE1 = CDK2/CycE1 (Homo sapiens, UniProt P24941); assay: Enzyme activity test; assay type: biochemical;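 further: values come from the source column headed CDK2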
Description: as §1, §2, §3, §4, §5, §6

MCF-7-Palbo-R cells = assay: MCF-7-Palbo-R cell antiproliferative assay (BrdU ELISA); assay type: cell-based; details: for IC50: 72 hours, BrdU
Description: 1. Experimental Materials • MCF-7/palbo-R • EMEM medium (ATCC, 30-2003); DMEM/F12 medium (Gibco-1 1330-032) • Fetal bovine serum (cellmax-SA21 1.02) • DMSO (SIGMA, D2650) • BrdU ELISA cell proliferation assay kit (Roche, 11647229001) • ELISA (e.g. MD-SpectraMax ID5 or EnVision)
2. Experimental protocol • 1. Cell spreading • 1) Cells were counted, the concentration of cell suspension was adjusted • 2) The MCF7/Palbo-R cell suspension was seeded in 96-well plates at […] volume to make the number of cells per well is 4000-5000; • 3) Blank control group was added with 90 μl of culture medium; • 2. […] A 3-fold serial gradient dilution was performed with 0.1% DMSO medium for a total of 9 concentrations, and the concentrations of the compounds after dilution were as follows: • 10000 nM, 3333.33 nM, 1111.11 nM, 370.34 nM, 123.45 nM, 41.15 nM, 13.72 nM, 4.57 nM, and 1.52 nM. • b) After 72 hours of compound treatment. • 1) A 10 mM of Brdu stock solution was diluted with RPMI medium and added to a 96-well plate at 20 uL/well and shaken at 350 rpm for 10 minutes. • 2) The 96 well plate was placed back into the incubator for 1 or 2 hours. • 3) After the medium was removed from the 96-well plate, 200 ul/well of Fixation/Denaturation solution was added and incubated for 30 minutes at room temperature. • 4) The fixation solution was removed and 100 ul of peroxidase-coupled anti-Brdu antibody solution (antibody dilution prepared at 1:100 dilution) was added, • and incubated at 350 rpm for 1 hour at room temperature. • 6) The 96-well plate was washed three times with 300 ul/well of PBS. • 8) 100ul of peroxidase substrate solution was added and shaken at 350 rpm for about 10-20 minutes at room temperature, • until the DMSO-treated cell control wells turn a medium blue color. If a color is too dark, it will cause the absorbance value to out of the reading range. • 9) The reaction was terminated by the addition of 25 ul of 1 M sulfuric acid. Shake to ensure uniform color. • 10) The absorbance at 450 nm was recorded. • 3. Data analysis • The inhibition rate is calculated using the following equation:
IR (%)=(1−(RLU compound−RLU blank)/(RLU control−RLU blank))*100%.

OVCAR3 cells = assay: Cell proliferation inhibition assay (MTT, 7 days); assay type: cell-based; details: Homo sapiens, OVCAR-3, 168 h, 7 days incubation
Description: (§7) MCF7, T47D, OVCAR3 and HCC1806 cells were inoculated in 96-well plates at 3000, 3000, 2500, and 2000 cells/well, respectively, and cultured overnight at 37° C., 5% C02 incubator.
(§8) 1. […] Then 2.5 μl of the stock solution was dissolved in 497.5 μl of DMSO-free medium, and then a 3-fold serial gradient dilution was performed with 0.1% DMSO medium for a total of 9 concentrations, and the concentrations of the compounds after dilution were as follows: • 10000 nM, 3333.33 nM, 1111.11 nM, 370.34 nM, 123.45 nM, 41.15 nM, 13.72 nM, 4.57 nM, and 1.52 nM. • b) After fully mixing, 20 μL of compound solutions were added into cell culture plates containing 80 μL of cells respectively, with 4 replicate wells for each concentration. • c) The cells were transferred to an incubator and incubated for 7 days, and exchanged with fresh culture medium containing the same concentration of compounds when incubated to day 4. 2. MTT assay • a) The cell culture plate was taken out and 10 μL of 5 mg/ml MTT was added to the hood. • b) The cell culture plate was put back into the incubator and continued to incubate for 3 hours. • c) The cell culture plate was taken out to remove the culture medium, and 100 μL of isopropanol (0.4 mMHCl, 0.4% NP40) was added to the plate, and the plate was shaken on a shaker at room temperature for 30 minutes and read at 570 nm. 3. Data analysis
(§9) The survival rate (% Cell Survival) was calculated using the following equation:
(§10) % Cell Survival=100%×(OD_Sample−OD_LCave)/(OD_HC−OD_LCave) • OD_HC: 0.1‰ cell readings of DMSO control • OD_Sample: cell readings of compound addition • OD_LC: readings of blank medium • Analyed by Prizm: Dose-response-Inhibition Log(inhibitor) vs response (three parameters for the best fit)
(§11) IC50 (nM) values were calculated by concentration-response curve fitting.

MCF7 cells = assay: Cell proliferation inhibition assay (MTT, 7 days); assay type: cell-based; details: Homo sapiens, 168 h, 7 days incubation
Description: as §7, §8, §9, §10, §11

HCC1806 cells = assay: Cell proliferation inhibition assay (MTT, 7 days); assay type: cell-based; details: Homo sapiens, HCC1806, 168 h, HCC1086 [sic], 7 days incubation
Description: as §7, §8, §9, §10, §11

T47D cells = assay: Cell proliferation inhibition assay (MTT, 7 days); assay type: cell-based; details: Homo sapiens, 168 h, 7 days incubation
Description: as §7, §8, §9, §10, §11

xMCF-7/Palbo-R cells = assay: xMCF-7/Palbo-R xenograft tumor model; assay type: in vivo; details: 20 mg/kg, oral tube feeding twice daily for 20 days, Balb/c nude female mice
Description: To establish a xenograft tumor model, 1×10^7 xMCF-7/Palbo-R cells were suspended in 0.2 mL of a mixture of Matrigel and […] (1:1) and injected subcutaneously into 6-8 week-old Balb/c nube female mice. Tumor growth was observed periodically, and the volume (volume=½×(length×width 2)) was measured with a vernier caliper. When the tumors grew to an average volume of 100˜150 mm3, the drug was administered to mice (12 days after inoculation) in random groups according to the tumor size and their body weights. […] The drugs were administered by oral tube feeding twice daily for 20 days. Tumor volume and animal weight were measured twice a week and continued until the end of the experiment. Dosing day was defined as day 0. Measurement time points were day 0, day 3, day 7, day 10, day 14, day 17 and day 20. All mice were euthanized by cervical dislocation. At the end of the experiment, tumors were collected and weighed to calculate TGI values (see Table 4).

OVCAR-3 cells = assay: OVCAR-3 xenograft tumor model; assay type: in vivo; details: oral tube feeding twice daily for 21 days, BALB/c nude female mice
Description: OVCAR-3 cells were cultured in RPMI1640 culture medium containing 20% fetal bovine serum and 10 μg/mL Insalin. Cells in the exponential growth phase were collected, and the cells were resuspended in the mixed solution of PBS and Matrigel in a ratio of 1:1 to a suitable concentration for subcutaneous tumor inoculation in nude mice.
To establish a xenograft tumor model, 1×10^7 OVCAR-3 cells were suspended in 0.2 mL of a mixture of PBS and Matrigel (1:1) and injected subcutaneously into 6-8-week-old BALB/c nube female mice on the right back. Tumor growth was observed periodically, and the volume (volume=½[…](length×width 2)) was measured with a vernier caliper. When the tumors grew to an average volume of 100˜150 mm^3, the drug was administered to mice (27 days after inoculation) in random groups according to the tumor size and their body weights. […] Tumor volume and animal weight were measured twice a week and continued until the end of the experiment. Dosing day was defined as day 0. Measurement time points were day 0, day 3, day 7, day 10, day 14, day 17 and day 21. All mice were euthanized by cervical dislocation. At the end of the experiment, tumors were collected and weighed to calculate TGI values (see Table 5).

CDK6/CycD1, sequence (Q00534 whole entry, species assumed): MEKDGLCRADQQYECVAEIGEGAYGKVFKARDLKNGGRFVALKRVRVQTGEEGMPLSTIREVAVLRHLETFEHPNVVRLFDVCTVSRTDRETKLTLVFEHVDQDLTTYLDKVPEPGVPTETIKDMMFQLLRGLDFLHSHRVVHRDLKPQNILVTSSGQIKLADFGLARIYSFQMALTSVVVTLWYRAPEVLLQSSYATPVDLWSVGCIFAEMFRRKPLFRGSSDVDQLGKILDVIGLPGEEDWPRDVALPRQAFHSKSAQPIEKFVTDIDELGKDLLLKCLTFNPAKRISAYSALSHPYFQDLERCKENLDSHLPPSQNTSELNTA
CDK6/CycD1, sequence (P24385 whole entry partner, species assumed): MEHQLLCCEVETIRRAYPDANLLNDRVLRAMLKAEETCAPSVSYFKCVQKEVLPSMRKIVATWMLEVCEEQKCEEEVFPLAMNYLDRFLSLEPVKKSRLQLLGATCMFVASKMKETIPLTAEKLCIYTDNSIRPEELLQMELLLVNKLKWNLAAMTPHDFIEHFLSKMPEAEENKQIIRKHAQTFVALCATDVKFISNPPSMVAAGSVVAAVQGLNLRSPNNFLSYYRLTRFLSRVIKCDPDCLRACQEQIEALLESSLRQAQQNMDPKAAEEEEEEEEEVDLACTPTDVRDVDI

## C[C@@]1(O)CCC[C@H]1n1c(=O)c(OC(F)F)cc2cnc(NC3CCN(S(=O)(=O)c4ccc(F)cc4)CC3)nc21 [Example 12]
CDK6/CycD1
  IC50: < 10 nM
CDK4/CycD3
  IC50: < 10 nM
CDK2/CycE1
  IC50: < 10 nM
MCF-7-Palbo-R cells; read-out: AbsIC50
  IC50: 26 nM
MCF-7-Palbo-R cells; read-out: ReIC50
  IC50: 26 nM
MCF-7-Palbo-R cells; bottom of inhibition curve
  Bottom(%): 7.117%
MCF-7-Palbo-R cells; top of inhibition curve
  Top(%): 99.196%
OVCAR3 cells
  IC50: ≤ 50 nM
MCF7 cells
  IC50: 50 to 5200 nM
HCC1806 cells
  IC50: ≤ 50 nM
T47D cells
  IC50: ≤ 50 nM

## C[C@@]1(O)CCC[C@H]1n1c(=O)c(OC(F)F)cc2cnc(NC3CCN(S(=O)(=O)c4cc(F)ccc4F)CC3)nc21 [Example 26]
CDK6/CycD1
  IC50: < 10 nM
CDK4/CycD3
  IC50: 10 to 100 nM
CDK2/CycE1
  IC50: < 10 nM
OVCAR3 cells
  IC50: 50 to 5200 nM
MCF7 cells
  IC50: 50 to 5200 nM
HCC1806 cells
  IC50: 50 to 5200 nM
T47D cells
  IC50: ≤ 50 nM

## C[C@@]1(O)CCC[C@H]1n1c(=O)c(OC(F)F)cc2cnc(NC3CCN(S(=O)(=O)c4ccccn4)CC3)nc21 [Example 27]
CDK6/CycD1
  IC50: < 10 nM
CDK4/CycD3
  IC50: < 10 nM
CDK2/CycE1
  IC50: < 10 nM
OVCAR3 cells
  IC50: ≤ 50 nM
MCF7 cells
  IC50: ≤ 50 nM
HCC1806 cells
  IC50: ≤ 50 nM
T47D cells
  IC50: ≤ 50 nM
xMCF-7/Palbo-R cells
  TGI: 61.5%

## CCCc1ccc(S(=O)(=O)N2CCC(Nc3ncc4cc(OC(F)F)c(=O)n([C@@H]5CCC[C@@]5(C)O)c4n3)CC2)cc1 [Example 28]
CDK6/CycD1
  IC50: < 10 nM
CDK4/CycD3
  IC50: 10 to 100 nM
CDK2/CycE1
  IC50: < 10 nM
OVCAR3 cells
  IC50: 50 to 5200 nM
MCF7 cells
  IC50: 50 to 5200 nM
HCC1806 cells
  IC50: 200 to 51000 nM
T47D cells
  IC50: 50 to 5200 nM

## [2H]C1(Nc2ncc3cc(OC(F)F)c(=O)n([C@@H]4CCC[C@@]4(C)O)c3n2)CCN(S(C)(=O)=O)CC1 [Example 29]
CDK6/CycD1
  IC50: < 10 nM
CDK4/CycD3
  IC50: < 10 nM
CDK2/CycE1
  IC50: < 10 nM
OVCAR3 cells
  IC50: ≤ 50 nM
MCF7 cells
  IC50: ≤ 50 nM
HCC1806 cells
  IC50: ≤ 50 nM
T47D cells
  IC50: 50 to 5200 nM
OVCAR-3 cells; 30 mg/kg
  TGI: 69%
OVCAR-3 cells; 50 mg/kg
  TGI: 74.8%

## C[C@@]1(O)CCC[C@H]1n1c(=O)c(OC(F)F)cc2cnc(NC3CCN(S(=O)(=O)c4cccnc4)CC3)nc21 [Example 51]
CDK6/CycD1
  IC50: < 10 nM
CDK4/CycD3
  IC50: < 10 nM
CDK2/CycE1
  IC50: < 10 nM
OVCAR3 cells
  IC50: ≤ 50 nM
MCF7 cells
  IC50: ≤ 50 nM
HCC1806 cells
  IC50: 50 to 5200 nM
T47D cells
  IC50: ≤ 50 nM

## C[C@@]1(O)CCC[C@H]1n1c(=O)c(OC(F)F)cc2cnc(Nc3ccc4c(c3)CN(S(C)(=O)=O)C4)nc21 [Example 64]
CDK6/CycD1
  IC50: < 10 nM
CDK4/CycD3
  IC50: 10 to 100 nM
CDK2/CycE1
  IC50: < 10 nM
OVCAR3 cells
  IC50: ≤ 50 nM
MCF7 cells
  IC50: 50 to 5200 nM
HCC1806 cells
  IC50: 50 to 5200 nM
T47D cells
  IC50: ≤ 50 nM

## CC(C)(O)Cn1cc(S(=O)(=O)N2CCC(Nc3ncc4cc(OC(F)F)c(=O)n([C@@H]5CCC[C@@]5(C)O)c4n3)CC2)cn1 [Example 75]
CDK6/CycD1
  IC50: < 10 nM
CDK4/CycD3
  IC50: 10 to 100 nM
CDK2/CycE1
  IC50: < 10 nM
OVCAR3 cells
  IC50: ≤ 50 nM
MCF7 cells
  IC50: ≤ 50 nM
HCC1806 cells
  IC50: 50 to 5200 nM
T47D cells
  IC50: ≤ 50 nM

— patent US20240287065A1, “COMPOUND AS CDK KINASE INHIBITOR AND USE THEREOF” (TYK MEDICINES (ZHENGZHOU) , INC., priority 2021, published 2024)
